The structures appear in SMILES notation. Starred links: 1 amine or outer side, 2 acyl side, 3 side chain; linkers in the order of their positions; H or OH if unused. Non-standard residues stand in square brackets, D forms with d. Residues, ends and D or L forms follow the SMILES beside them. *: point of attachment. Phe(4-CH2SO3H) = N[C@@H](Cc1ccc(CS(=O)(=O)O)cc1)C(=O)O; C18 diacid = O=C(O)CCCCCCCCCCCCCCCCC(=O)*; γGlu = O=C(O)[C@H](CCC(=O)[*:2])N[*:1]; NMeF = CN[C@@H](Cc1ccccc1)C(=O)O; dNMeD = CN[C@H](CC(=O)O)C(=O)O; Nle = CCCC[C@H](N)C(=O)O; AEEA = NCCOCCOCC(=O)O

A short description of this series: Chemical stability in 50 mM phosphate buffer pH 7.4, RP-UPLC. It is filed as physicochemical. Here is the method:
The purpose of this assay is to assess the chemical stability of the derivatives of the invention in aqueous solutions. The chemical stability was investigated by RP-UPLC separation and UV detection.
Lyophilised samples of the derivative of Example 3 were dissolved in a 50 mM sodium phosphate buffer pH 7.4 containing 70 mM NaCl and 0.05 v/v % polysorbate 80, at a concentration of 1 mg/ml of the derivative (for the Example 3 derivative 1 mg/ml equates 0.54 mM). If necessary, pH was adjusted to 7.4. […]
RP-UPLC analysis was performed using a Waters Acquity system with the following parameters:
The following UPLC gradient was used: […]
Purity of a compound is defined as the area percentage of the compound peak in relation to the total area of all integrated peaks in the chromatogram and is calculated by the software of the apparatus. Absolute purity loss (in percentage points, pp) is determined as the difference in purity between the start sample and the sample incubated for a certain time at a certain temperature. Relative purity loss (in %) is the ratio of absolute purity loss to the purity determined in the start sample.

For the molecule `CCCC[C@H](NC(=O)[C@H](Cc1ccc(CS(=O)(=O)O)cc1)NC(=O)[C@H](CC(=O)O)NC(=O)COCCOCCNC(=O)COCCOCCNC(=O)CC[C@H](NC(=O)CCCCCCCCCCCCCCCCC(=O)O)C(=O)O)C(=O)NCC(=O)N[C@@H](Cc1c[nH]c2ccccc12)C(=O)N[C@@H](CCCC)C(=O)N(C)[C@H](CC(=O)O)C(=O)N(C)[C@@H](Cc1ccccc1)C(N)=O` [Example 3, 2-[2-[2-[[2-[2-[2-[[(4S)-4-Carboxy-4-(17-carboxyheptadecanoylamino)butanoyl]amino]ethoxy]ethoxy]acetyl]amino]ethoxy]ethoxy]acetyl-Asp-Phe(4-sulfomethyl)-Nle-Gly-Trp-Nle-DMeAsp-MePhe-amide] ({C18 diacid-γGlu-AEEA-AEEA}-D[Phe(4-CH2SO3H)][Nle]GW[Nle][dNMeD][NMeF]-NH2), under “all three temperatures tested (5, 25, 37° C.), up to at least 6 weeks”, the “chemical stability, overall” value is recorded as “very stable”. In addition, where the note is “same buffer, 25° C., three days, 25 μM, 100 μM and 500 μM”, the “short term chemical stability” value is on record as “virtually no degradation”.

Source of the values: US20170008928A1, “NOVEL PEPTIDES AND PEPTIDE DERIVATIVES AND USES THEREOF” (Novo Nordisk A/S, priority 2015, published 2017).
